Experimental data taken from patent publication US20210054323A1, “INNERVATED INTESTINE ON CHIP” (EMULATE, Inc., priority 2018, published 2021).

Tests used:
[1] = system: human iPS-derived sensory neurons (Nociceptors); assay: Live calcium imaging (Fluo-4 AM) of Nociceptors on-chip after capsaicin irritation; assay type: cell-based; conditions: capsaicin 1 μM, sensory neurons in apical channel
Method: Irritation (as pain simulation) to sensory neurons on-chip was induced by capsaicin (1 μM in DMEM/F12 with 10% FBS, supplemented with BDNF, GDNF, NGF, NT-3 (25 ng/ml each) and Ascorbic Acid (200 μM)) in order to recapitulate the sensation of burning (heat) felt by humans exposed to capsaicin. Nociceptors responded to capsaicin, as shown by live imaging of calcium using Fluo-4 AM, see FIGS. 28C and 28D. Fluo-4 AM refers to a calcium sensitive fluorescent dye, loaded onto the sensory neurons. Intracellular calcium fluctuations were monitored over time using high-speed imaging. Acquisition protocols, for the example shown herein, consisted of 5-minute time-lapse sequences of Fluo-4 fluorescence. Alterations in fluorescence as a function of time were measured at a single wavelength (Fluo-4). Analysis and processing, as well as playback of the image sequences for visual inspection, was made using ImageJ/FIJI software. To visualize the spatial and temporal changes in, the raw sequences were processed to highlight changes in fluorescence intensity between frames. Regions of interest over the field of view were selected, and the mean pixel intensity at each frame was measured. The data was first plotted as fluorescence intensity versus and subsequently converted to a relative scale (ΔF/F baseline)

[2] = system: human iPS-derived sensory neurons (Nociceptors); assay: Substance P release into apical channel effluent of Nociceptors-Chip; assay type: cell-based
Method: Chemical stimulation of Nociceptors with Capsaicin (e.g. 1 μM), perfused for 3 hours, was followed by effluent collected from the apical channel (neuronal). This Capsaicin treatment elicited the release of substance P, a pain neurotransmitter. […] This model was further developed, as described herein, successfully simulating the process of sensitization that leads to pathological pain by the addition of inflammatory mediators to endothelial media perfused through the vascular channel. As one example, 5 μM each of Prostaglandin E2, bradykinin, serotonin and histamine in Vascular Cell Basal Medium (ATCC® PCS-100-030™) with Microvascular Endothelial Cell Growth Kit-VEGF (ATCC® PCS-110-041™) was perfused through the vascular channel. In other words, this model is intended to simulate peripheral sensitization of Nociceptors. Capsaicin (200 nM) and inflammatory mediators (each 5 μM) were perfused for 3 hours, and the effluents were collected from the apical channel (neuronal). See, FIG. 30A for an exemplary schematic diagram. […] At the same time, inflammatory mediators, i.e. Prostaglandin E2, bradykinin, serotonin and histamine (each 5 μM in media), were added to the inlet of the basal channel. The effluent was collected from the outlet of the apical channel after 3 hours (t=3 h).

[3] = system: Human Dermal Microvascular Endothelial Cells (HMVEC-D); assay: Vascular permeability, 3 kDa Dextran leakage from basal into apical channel of Nociceptors-Chip; assay type: cell-based; conditions: capsaicin 200 nM apical, simultaneously with inflammatory mediators (each 5 μM) basal, 3 hours
Method: In one embodiment, endothelial cells were seeded into the basal channel, e.g. Human Dermal Microvascular Endothelial Cells (HMVEC-D), i.e. Primary Dermal Microvascular Endothelial Cells; Normal, Human, Neonatal (HDMVECn) (e.g. ATCC® PCS-110-010™). However, it is not meant to limit the source of HMVEC, such that Primary Dermal Microvascular Endothelial Cells may be obtained from neonatal biopsies, e.g. foreskins. Prior to seeding, basal channels were coated with a thin rat collagen coating. Rat collagen was diluted in distillated water to obtain a final protein concentration at 150 μg/mL−1. The basal channel was coated by incubating the channel in collagen solution at 4° C. overnight. Unattached rat collagen was washed away with PBS, then culture medium was flowed in to cover the coated membrane to replace the PBS.
This model was further developed, as described herein, successfully simulating the process of sensitization that leads to pathological pain by the addition of inflammatory mediators to endothelial media perfused through the vascular channel. […]
Another readout is obtained by using Dextran (3 kDa) permeability, where Dextran is added to the basal channel then after 24 hours, effluent from the apical channel was collected for measuring the amount of Dextran that diffused through the endothelial barrier into the neuronal channel. […]

endothelial cells = assay: Real-time TEER measurement in BBB-chip; assay type: cell-based; conditions: BBB-chip under flow, after TNF-a challenge
Excerpt: TEER measures the resistance to pass current across one or more cell layers on a membrane. Specifically, this electrical resistance is a direct measurement of the resistance of the cell monolayer to the transport of ions. The measurement may be affected by the pore size and density of the membrane, but it aims to ascertain cell and/or tissue properties. The TEER value is considered a good measure of the integrity of a cell monolayer.
The barrier function of the same BBB-chip measured by flowing a fluorescent molecule on one side of the chip and measuring how much of the molecules crosses the endothelial cells, FIG. 23B (middle). The resolution of this measurement is limited by the time it takes for a sufficient sample to flow through the chip. A model of an exemplary TEER-Chip design FIG. 23C (right) utilizing electrodes oriented in a manner that allows electrical resistance of the cells on the membrane to be measured in real-time.

[4] = system: iPSC-derived human brain microvascular endothelial cells; assay: Inflamed Brain-Chip: endothelial morphology (ZO-1) and Dextran leakage after TNF-α in vascular channel; assay type: cell-based
Method: In one embodiment to provide an innervated human brain chip having intact barrier function, induced pluripotent stem cells (iPSC)-derived cortical neurons, including populations of Glutamatergic neurons and GABAergic neurons, human primary astrocytes, and human primary pericytes were seeded into the neuronal channel (upper chamber), and iPSC-derived human brain microvascular endothelial cells in the vascular channel (lower chamber).
The vascular channel was directly stimulated the vascular channel at two concentrations of TNF-α.

astrocytes = assay: Brain-Chip GFAP expression after TNF-α perfused into neuronal channel; assay type: cell-based, human; conditions: TNF-α 100 ng/ml perfused into neuronal channel; up to 24 hours after stimulation
Method: TNF-α (100 ng/ml) or vehicle was perfused into the neuronal channel.

Q: With COc1cc(CNC(=O)CCCC/C=C/C(C)C)ccc1O [capsaicin, trans-8-methyl-N-vanillyl-6-nonenamide] as the compound, how does the “Nociceptor response by live imaging of calcium, change in fluorescence (ΔF/F)” value [1] read?
A: responded

Q: What about the “Substance P released in the apical channel effluent” value ([2]; capsaicin 200 nM apical, with inflammatory mediators (Prostaglandin E2, bradykinin, serotonin, histamine, each 5 μM) basal, 3 hours) of the same compound?
A: significant increase

Q: And the “Substance P released in the apical channel effluent” value ([2]; capsaicin 1 μM perfused through apical channel for 3 hours)?
A: significant increase

Q: What about the “Vascular permeability (leakage of 3 kDa Dextran into the apical channel)” value [3] of the same compound?
A: significant increase

Q: TNF-α was tested. Which “Barrier function by real-time TEER” value (endothelial cells) did it give?
A: abrupt drop

Q: And the “Percent leakage of Dextran into the apical channel (paracellular permeability) vs control” value ([4]; TNF-α 100 ng/ml and 1 ug/ml in vascular channel, 16 hours)?
A: significantly higher

Q: What about the “Endothelial cell morphology (ZO-1 expression)” value ([4]; TNF-α in vascular channel for 16 hours, 100 ng/ml and 1 ug/ml) of the same compound?
A: induces changes

Q: What about the “GFAP expression (optical intensity of GFAP staining)” value (astrocytes) of the same compound?
A: significantly increases
